# Results taken from patent US20130012465A1 (Boehringer Ingelheim International GmbH, priority 2009, published 2013).
# Where two headings read alike, the source gives them in different places.
# Columns and labels:
# [1] = system: HCC 1143; assay: triple negative breast cell panel, EC50 2D/3D; assay type: cell-based; settings: Homo sapiens, HCC1143
# [2] = system: BT20; assay: triple negative breast cell panel, EC50 2D/3D; assay type: cell-based; settings: Homo sapiens, BT-20
# [3] = system: HER2-negative, HR-positive mBC; assay: Phase II clinical study, Cohort B; assay type: in vivo, human
# Protocol: (§1) A Phase II, open-label, multicenter trial was conducted in Belgium and Germany. Two Cohorts of patients were included: • Cohort A: Patients with triple negative mBC • Cohort B: Patients with HER2-negative, HR-positive mBC. • Primary endpoint for Cohort A and B initially was objective response as determined by response evaluation criteria in solid tumours (RECIST) criteria, as described by P. Therasse et al., J Natl Cancer Inst 2000, 92, 205-216. For Cohort A this was modified by amendment to clinical benefit (CB), i.e. complete response (CR), partial response (PR) and stable disease (SD) for at least 4 courses. • Secondary endpoints were time to progression, progression-free survival (PFS), overall survival (OS), time to objective response, duration of objective response, safety and pharmacokintics (PK). Clinical benefit (CR, PR, SD) was a secondary endpoint for Cohort B. • A total of 80 patients was planned to be enrolled into the trial: 80, i.e. 40 patients per cohort. […] Additional predose plasma samples were taken on Day 15 of Course 1, on Day 1 of Course 2 and on Day 1 of all subsequent courses (Course 3 onwards).
# (§2) Dose reduction to 40 mg/day and 30 mg/day was an option for patients experiencing certain drug-related AEs.
# • Confirmed diagnosis of Stage IV HER2-negative metastatic breast cancer (HER22+ and fluorescence in situ hybridization-negative or HER21+ or negative) • Progression following no more than two lines of chemotherapy including adjuvant, not including hormone treatments for Cohort B • Age ≧18 years • Life expectancy of at least 6 months • Written informed consent • Eastern Cooperative Oncology Group (ECOG) performance score 0-2 • Measurable disease according to RECIST criteria • Availability of tumour samples (fresh or paraffin material) for EGFR-testing. • No prior treatment with EGFR/HER1 or HER2 inhibiting agent • Adequate liver, kidney and bone marrow function • No concomitant treatment with other investigational drugs • No other anti-cancer-therapy within four weeks prior to the first treatment with the trial drug. • Concurrent treatment with biphosphonates is allowed.
# • ER-positive and/or PgR-positive patients: ER-status and PgR-status must be assessed by IHC and Allred (Harvey J M et al., J Clin Oncol 1999, 17(5), 1474-1481).
# [4] = system: BT 549; assay: triple negative breast cell panel, EC50 2D/3D; assay type: cell-based; settings: Homo sapiens
# [5] = system: HCC 70; assay: triple negative breast cell panel, EC50 2D/3D; assay type: cell-based; settings: Homo sapiens, HCC70
# [6] = system: HCC 1806; assay: triple negative breast cell panel, EC50 2D/3D; assay type: cell-based; settings: Homo sapiens, HCC1806
# [7] = system: MDA-MB-468; assay: triple negative breast cell panel, EC50 2D/3D; assay type: cell-based; settings: Homo sapiens; MDA-MB-468, 3D
# [8] = system: MDA-MB-231; assay: triple negative breast cell panel, EC50 2D/3D; assay type: cell-based; settings: Homo sapiens
# [9] = system: triple negative mBC; settings: Cohort A
# Protocol: as §1, §2
# • HR-negative patients: estrogen receptor (ER) status and progesterone receptor (PgR) status must be assessed by immunohistochemistry (IHC) and Allred (Harvey J M et al., J Clin Oncol 1999, 17(5), 1474-1481).
# [10] = system: SUM 149PT; assay: triple negative breast cell panel, EC50 2D/3D; assay type: cell-based; settings: Homo sapiens, SUM149PT
# [11] = system: CAMA-1; assay: triple negative breast cell panel, EC50 2D/3D; assay type: cell-based; settings: Homo sapiens
# [12] = system: HER2-negative metastatic breast cancer; assay: Phase II clinical study, all treated patients (safety, PK, exposure); assay type: in vivo, human
# Protocol: as §1, with “Two Cohorts of patients were included: • Cohort A: Patients with triple negative mBC • Cohort B: Patients with HER2-negative, HR-positive mBC. • Primary endpoint for Cohort A and B initially was objective response as determined by response evaluation criteria in solid tumours (RECIST) criteria, as described by P. Therasse et al., J Natl Cancer Inst 2000, 92, 205-216.” left out
# as §2
# [13] = system: HCC 1937; assay: triple negative breast cell panel, EC50 2D/3D; assay type: cell-based; settings: Homo sapiens, HCC1937
# [14] = system: SUM149 Xenografts; assay: triple negative, EGFR positive SUM149 Xenografts in mice; assay type: in vivo
# [15] = HCC 1143, 2D, read-out: EC50 [nM] 2D
# [16] = HCC 1143, 3D, read-out: EC50 [nM] 3D
# [17] = BT20, 2D, read-out: EC50 [nM] 2D
# [18] = BT20, 3D, read-out: EC50 [nM] 3D
# [19] = BT 549, 2D, read-out: EC50 [nM] 2D
# [20] = HCC 70, 2D, read-out: EC50 [nM] 2D
# [21] = HCC 70, 3D, read-out: EC50 [nM] 3D
# [22] = HCC 1806, 2D, read-out: EC50 [nM] 2D
# [23] = HCC 1806, 3D, read-out: EC50 [nM] 3D
# [24] = MDA-MB-231, 2D, read-out: EC50 [nM] 2D
# [25] = MDA-MB-231, 3D, read-out: EC50 [nM] 3D
# [26] = three patients with clinical benefit for >4 months
# [27] = CAMA-1, 2D, read-out: EC50 [nM] 2D
# [28] = CAMA-1, 3D, read-out: EC50 [nM] 3D
# [29] = 50 treated patients, 50 mg/day oral
# [30] = HCC 1937, 2D, read-out: EC50 [nM] 2D
# [31] = HCC 1937, 3D, read-out: EC50 [nM] 3D
SMILES,"EC50 [1, 15]","EC50 [1, 16]","EC50 [2, 17]","EC50 [2, 18]","EC50 [4, 19]","EC50 [5, 20]","EC50 [5, 21]","EC50 [6, 22]","EC50 [6, 23]",EC50 [7],"EC50 [8, 24]","EC50 [8, 25]",EC50 [10],"EC50 [11, 27]","EC50 [11, 28]","EC50 [13, 30]","EC50 [13, 31]",other results
"CN(C)C/C=C/C(=O)Nc1cc2c(Nc3ccc(F)c(Cl)c3)ncnc2cc1O[C@H]1CCOC1 [BIBW 2992, 4-[(3-chloro-4-fluorophenyl)amino]-6-{[4-(N,N-dimethylamino)-1-oxo-2-buten-1-yl]amino}-7-((S)-tetrahydrofuran-3-yloxy)-quinazo line]",> 4000 nM,> 1000 nM,> 4000 nM,23 nM,2020 nM,571 nM,> 1000 nM,> 4000 nM,47 nM,1250 nM,> 10000 nM,2150 nM,17 nM,234 nM,277 nM,> 4000 nM,> 4000 nM,"patients discontinued due to disease progression [3]: 12 patients; objective response (OR), RECIST ([3]; 50 mg/day oral): No OR; patients with SD for ≧4 cycles ([3]; 50 mg/day oral): 1 patient; patients with a best response of SD ([3]; 21 patients included, 50 mg/day oral): 5 patients; EC50 ([4]; BT 549, 3D, read-out: EC50 [nM] 3D): 956 nM; patients discontinued due to disease progression [9]: 19 patients; objective response (OR), RECIST ([9]; 50 mg/day oral): No objective response; patients remaining on treatment with SD for >4 cycles ([9]; 50 mg/day oral): three; overall median PFS ([9]; 29 patients): 53 days; patients with a best response of SD ([9]; 29 patients included, 50 mg/day oral): Seven; mean PFS [9, 26]: 217 days; median PFS [9, 26]: 184 days; patients discontinued due to dose-reducing toxicities ([12]; 50 treated patients): 15 patients; patients discontinued due to other AEs ([12]; 50 treated patients): four; patients discontinued treatment due to AEs [12, 29]: Nineteen; safety profile [12, 29]: safety profile similar to other EGFR TKIs; patients discontinued due to disease progression ([12]; all 50 treated patients): Thirty-one"
CCOc1cc2ncc(C#N)c(Nc3ccc(OCc4ccccn4)c(Cl)c3)c2cc1NC(=O)/C=C/CN(C)C [HKI-272],–,–,–,–,–,–,–,–,–,–,–,–,–,–,–,–,–,T/C [%] Day 42 ([14]; 50 mg/kg/d (MTD)): 36%
C#Cc1cccc(Nc2ncnc3cc(OCCOC)c(OCCOC)cc23)c1 [erlotinib],–,–,–,–,–,–,–,–,–,–,–,–,–,–,–,–,–,T/C [%] Day 42 ([14]; 75 mg/kg/d (MTD)): 6%
"CS(=O)(=O)CCNCc1ccc(-c2ccc3ncnc(Nc4ccc(OCc5cccc(F)c5)c(Cl)c4)c3c2)o1 [lapatinib, reference compound]",> 4000 nM,> 4000 nM,> 4000 nM,467 nM,> 1000 nM,> 1000 nM,> 1000 nM,> 4000 nM,> 4000 nM,> 1000 nM,> 10000 nM,> 4000 nM,1360 nM,> 1000 nM,3010 nM,> 4000 nM,> 4000 nM,T/C [%] Day 42 ([14]; 2 × 100 mg/kg/d (MTD)): 25%
